The text below walks through data of BindingDB's records for doi:10.1021/cb500143h (Tottori University , Yonago 683-8503, Japan, 2014).

A word on the IC50: it is the concentration needed to halve the response being measured. A lower IC50 goes with greater potency in that assay.

In one assay the target is T1, Alpha-galactosidase A (Homo sapiens, UniProt P06280).
T1 sequence (P06280 whole entry): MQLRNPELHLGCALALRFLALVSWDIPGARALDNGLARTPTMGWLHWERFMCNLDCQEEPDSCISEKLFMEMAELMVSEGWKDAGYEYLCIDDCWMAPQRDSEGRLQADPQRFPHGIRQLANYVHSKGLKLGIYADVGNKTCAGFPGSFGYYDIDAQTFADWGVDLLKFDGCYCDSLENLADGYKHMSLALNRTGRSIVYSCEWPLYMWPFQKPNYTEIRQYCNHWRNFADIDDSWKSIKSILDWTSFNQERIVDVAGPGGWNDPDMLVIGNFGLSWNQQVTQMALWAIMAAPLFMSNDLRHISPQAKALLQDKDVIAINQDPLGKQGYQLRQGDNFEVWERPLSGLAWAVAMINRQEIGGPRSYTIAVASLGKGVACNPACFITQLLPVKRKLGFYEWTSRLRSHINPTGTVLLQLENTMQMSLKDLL
The experiment in a line: α-Gal A Assay. The following applies: pH 5.
Compound `OC[C@@H]1[C@H](O)[C@H](O)[C@@H](O)CN1C(=S)NCc1ccccc1` [DGJ-BnT] yielded a half-maximal inhibitory concentration (IC50) of 20300 nM.
`OC[C@@H]1[C@H](O)[C@H](O)[C@@H](O)CN1C(=S)Nc1cccc2ccccc12` [DGJ-NphT]: half-maximal inhibition (IC50) was put at 1600 nM.
Regarding `OC[C@@H]1[C@H](O)[C@H](O)[C@@H](O)CN1C(=S)Nc1ccc(F)cc1` [DGJ-pF PhT], the IC50 was found to be 340 nM.
Still for that read-out and setting: to `COc1ccc(NC(=S)N2C[C@H](O)[C@@H](O)[C@@H](O)[C@H]2CO)cc1` [DGJ-pMe OPhT] belongs 74 nM; to `CSc1ccc(NC(=S)N2C[C@H](O)[C@@H](O)[C@@H](O)[C@H]2CO)cc1` [DGJ-pMe SPhT], 8.3 nM; to `O[C@@H]1[C@@H](O)CN2/C(=N\c3ccc(F)cc3)SCC2[C@@H]1O` (some centres not stated) [pF PhIM-DGJ], 9670 nM.

Staying with this assay, now noted: pH 7.
Turning to `OC[C@@H]1[C@H](O)[C@H](O)[C@@H](O)CN1C(=S)NCc1ccccc1` [DGJ-BnT], half-maximal inhibition (IC50) was put at 4410 nM.
`OC[C@@H]1[C@H](O)[C@H](O)[C@@H](O)CN1C(=S)Nc1cccc2ccccc12` [DGJ-NphT]: 370 nM corresponded to half-maximal inhibition (IC50).
Compound `OC[C@@H]1[C@H](O)[C@H](O)[C@@H](O)CN1C(=S)Nc1ccc(F)cc1` [DGJ-pF PhT] yielded an IC50 of 43 nM.
On the same count and under the same terms, the same measure for `COc1ccc(NC(=S)N2C[C@H](O)[C@@H](O)[C@@H](O)[C@H]2CO)cc1` [DGJ-pMe OPhT]: 16 nM; for `CSc1ccc(NC(=S)N2C[C@H](O)[C@@H](O)[C@@H](O)[C@H]2CO)cc1` [DGJ-pMe SPhT]: 1.4 nM.
The same measure, in the same setting: the same measure for `O[C@@H]1[C@@H](O)CN2/C(=N\c3ccc(F)cc3)SCC2[C@@H]1O` (some centres not stated) [pF PhIM-DGJ]: 2180 nM.
